Data reported in US12269902B2, “Peptide compounds and peptide conjugates for the treatment of cancer through receptor-mediated chemotherapy” (TRANSFERT PLUS, S.E.C., priority 2015, dated 2025).
Blank lines part the entries; values can stand above or below the molecule they belong to. Non-standard residues stand in square brackets, D forms with d. Residues, ends and D or L forms follow the SMILES beside them. *: point of attachment. X1 = CC(=O)O[C@@]12CO[C@@H]1C[C@H](O)[C@@]1(C)C(=O)[C@H](O)C3=C(C)[C@@H](OC(=O)[C@H](OC(=O)CCC(=O)*)[C@@H](NC(=O)OC(C)(C)C)c4ccccc4)C[C@@](O)([C@@H](OC(=O)c4ccccc4)[C@H]21)C3(C)C; Nle = CCCC[C@H](N)C(=O)O

Tests used:
[1] = tested on: MDA-MB-231 breast cancer cells; test: cells; conditions: Homo sapiens
Method: Breast cancer cells (MDA-MB231) were incubated with increasing concentrations of KBC106 or curcumin. After 72 hrs, thymidine incorporation assay was performed to assess the anti-proliferative properties of both molecules. IC50 values were extracted from the anti-proliferative curves.
(§1) The phytochemical Curcumin, unconjugated and conjugated, was also tested on cancer cell proliferation (FIG. 28). Breast cancer cells (MDA-MB231) were incubated with increasing concentrations of KBC106 or curcumin. After 72 hrs, thymidine incorporation assay was performed to assess the anti-proliferative properties of both molecules. IC50 values were extracted from the anti-proliferative curves. […] Proliferation assay was also performed using different types of cancer cells (ovarian, breast, skin and colorectal cancer cells). IC50 values were calculated from the anti-proliferation curves.
(§2) Cancer cells were cultured in 96-well white plates (Perkin Elmer). They were synchronized for 24 hours in serum-deprived medium. After incubation of cells with unconjugated drugs (docetaxel, cabazitaxel, doxorubicin) or with drug-Katana peptide conjugates for 2 or 3 days, all media was aspirated and cells were pulse-labeled for 4 hours at 37° C./[…]/5% CO2 with media containing 2.5 μCi/mL [methyl-3H] thymidine (Perkin Elmer). Cells were washed, fixed, and dried before addition of scintillation fluid (Microscint 0, Perkin Elmer). After 24 hours, cell-associated tritium was quantified by counting on a plate reader (TopCount, Perkin Elmer). Incorporated [3H] thymidine was plotted for each drug concentration.

[2] = tested on: HCC-1569 breast cancer cells; test: cells; type: cell-based; conditions: Homo sapiens, HCC1569; HCC-1569 (HER2+; Herceptin resistant); Table 6
Method: as §1, with “anti-proliferation curves. In all cases, the Curcumin conjugate (KBC106) had stronger anti-proliferative activity (9-100 fold) than unconjugated Curcumin, as shown in Table 6 below.” for “anti-proliferation curves.”
as §2

[3] = tested on: HCC-1954 breast cancer cells; test: cells; type: cell-based; conditions: Homo sapiens, HCC1954; HCC-1954 (HER2+; Lapatinib resistant); Table 6
Method: as §1, with “anti-proliferation curves. In all cases, the Curcumin conjugate (KBC106) had stronger anti-proliferative activity (9-100 fold) than unconjugated Curcumin, as shown in Table 6 below.” for “anti-proliferation curves.”
as §2

[4] = tested on: HT-29 colorectal cancer cells; test: cells; type: cell-based; conditions: Homo sapiens, Table 6
Method: as §1, with “anti-proliferation curves. In all cases, the Curcumin conjugate (KBC106) had stronger anti-proliferative activity (9-100 fold) than unconjugated Curcumin, as shown in Table 6 below.” for “anti-proliferation curves.”
as §2

cancer cells = test: Apoptosis by fluorescence microscopy (alpha-tubulin, DAPI); type: cell-based; conditions: fluorescent microscopy
Method: In FIG. 30, it was further evaluated whether the Curcumin conjugate (KBC106) induces cancer cell apoptosis. Cancer cells were incubated with KBC106 and curcumin. First column, uptake for both molecules can be monitored by fluorescent microscopy. Higher accumulation of fluorescence was detected for KBC1006 indicating a better cell internalization for the conjugate. Curcumin accumulation was barely visible in these cancer cells. […] In the third column, cell nucleus was labelled with the fluorescent dye DAPI.

A-375 skin cancer cells = test: [3H]-Thymidine incorporation cell proliferation assay, A-375; type: cell-based; conditions: Homo sapiens
Method: (§3) The effect of the Docetaxel-Katana peptide conjugate on various cell line proliferations was evaluated and compared to unconjugated Docetaxel (Table 4). IC50 values obtained for the Docetaxel-Katana peptide conjugate were very similar to those of Docetaxel in the cancer cells tested.
as §1, with “anti-proliferation curves. In all cases, the Curcumin conjugate (KBC106) had stronger anti-proliferative activity (9-100 fold) than unconjugated Curcumin, as shown in Table 6 below.” for “anti-proliferation curves.”
as §2

[5] = tested on: ES-2 ovarian cancer cells; test: [3H]-Thymidine incorporation cell proliferation assay, ES-2; type: cell-based; conditions: ES-2 (Ovary)
Method: as §3
as §1, with “anti-proliferation curves. In all cases, the Curcumin conjugate (KBC106) had stronger anti-proliferative activity (9-100 fold) than unconjugated Curcumin, as shown in Table 6 below.” for “anti-proliferation curves.”
as §2

[6] = tested on: SK-MEL-28 skin cancer cells; test: [3H]-Thymidine incorporation cell proliferation assay, SK-MEL-28; type: cell-based; conditions: Homo sapiens
Method: as §3
as §1, with “anti-proliferation curves. In all cases, the Curcumin conjugate (KBC106) had stronger anti-proliferative activity (9-100 fold) than unconjugated Curcumin, as shown in Table 6 below.” for “anti-proliferation curves.”
as §2

[7] = free Docetaxel; Assessment report for Docetaxel Teva, European Medicines Agency; cited from earlier work
SKOV3 cancer cells = test: SKOV3 luciferase subcutaneous xenograft tumour model (Docetaxel, KBA-105); conditions: mice, Docetaxel 10 mg/kg/week, 3 treatments
Method: Mice were implanted in the flank with SKOV3 cancer cells. Tumor growth was monitored by luminescence using the Near Infrared imaging system from Carestream.
Results are expressed in terms of luminescence intensity as a function of post-treatment days.
To further evaluate the in vivo efficacy of the Katana-drug conjugate, SKOV3 cancer cells expressing luciferase were implanted in the mouse flank. […] Tumour imaging was performed on different days by injecting the luciferase substrate luciferin and by using the Xtreme imaging system from Carestream.
Luminescence was then quantified and plotted as a function of days after implantation (FIG. 23).
SKOV3 cancer cells (2.5×10^6 cells) expressing luciferase were implanted in the right flank of mice. Tumour growth was monitored using near infrared (NiR) imaging system from Carestream by injecting the luciferase substrate luciferin. […] Luminescence associated with tumour growth of SKOV3/Luc cancer cells was quantified as a function of post-treatment days with the instrument software.

[8] = tested on: MDA-MB231 breast cancer cells; test: MDA-MB231 luciferase breast subcutaneous tumors (Docetaxel, KBA106); type: in vivo, mice
Method: 27A. Mice were implanted in the flank with MDA-MB231 breast cancer cells expressing luciferase. Tumor growth by luminescence was visualized using an in vivo imaging system from Carestream. Mice were treated with vehicle, Docetaxel (15 mg/kg/week) or KBA106 (50 mg/kg/week). Initial luminescence intensity was subtracted. 27B. […] No value was available (N/A) for the mice treated with the vehicle since all mice were then sacrificed because the size of their tumors reached the endpoint limit. 27C. Tumor luminescence results were expressed in terms of percentage of progression on D74 post-treatment compared to initial tumor luminescence. In the Docetaxel group, the tumor luminescence increased by 100% whereas in the KBA106 treated group the luminescence decreased by 100%.
Residual tumor burden was assessed in Docetaxel and Docetaxel conjugate treated mice (FIG. 27). Mice were implanted in the flank with MDA-MB231 breast cancer cells expressing luciferase. Tumor growth by luminescence was visualized using an in vivo imaging system from Carestream. Mice were treated with vehicle, Docetaxel (15 mg/kg/week) or KBA106 (50 mg/kg/week).

[9] = Tissue distribution of radiolabeled compounds in mice; conditions: iv bolus, equivalent dose of Docetaxel (Docetaxel 2.2, KBA105 5 mg/kg)
Method: CD-1 mice were injected with the radiolabeled conjugate at 5 mg/kg via iv bolus injections (21A) or […] of radiolabeled Docetaxel (21B). At the indicated times (1 h, 6 h, 24 h) mice were sacrificed and perfused with saline for 8 min. Tissues were then collected and radioactivity was measured. Results are expressed in terms of ng/g of tissue.
At the indicated times (1, 6 and 24 hours), whole body perfusion was performed for 8 min with saline at a flow rate of 8 ml/min after […] hours iv bolus injections.
After radiolabeling free iodine was remove. Mice were injected with Docetaxel-[^125I]-Katana peptide conjugate at 5 mg/kg. Plasma was collected at the indicated times. After 1, 2 and 24 hours some mice were perfused with saline, sacrificed and tissues were collected. Radioactivity in the plasma and tissues were measured in a radioactivity counter and results were calculated and expressed in terms of […] for the plasma or ng/g of tissues.

P-gp (MDR1) = P-gp (MDR1) (Homo sapiens, UniProt P08183); test: Drug accumulation in MDCK-MDR1 cells with or without Cyclosporin A; conditions: 50 nM, 1 hr, 37° C., CsA 10 μM
P-gp (MDR1), sequence (P08183 whole entry): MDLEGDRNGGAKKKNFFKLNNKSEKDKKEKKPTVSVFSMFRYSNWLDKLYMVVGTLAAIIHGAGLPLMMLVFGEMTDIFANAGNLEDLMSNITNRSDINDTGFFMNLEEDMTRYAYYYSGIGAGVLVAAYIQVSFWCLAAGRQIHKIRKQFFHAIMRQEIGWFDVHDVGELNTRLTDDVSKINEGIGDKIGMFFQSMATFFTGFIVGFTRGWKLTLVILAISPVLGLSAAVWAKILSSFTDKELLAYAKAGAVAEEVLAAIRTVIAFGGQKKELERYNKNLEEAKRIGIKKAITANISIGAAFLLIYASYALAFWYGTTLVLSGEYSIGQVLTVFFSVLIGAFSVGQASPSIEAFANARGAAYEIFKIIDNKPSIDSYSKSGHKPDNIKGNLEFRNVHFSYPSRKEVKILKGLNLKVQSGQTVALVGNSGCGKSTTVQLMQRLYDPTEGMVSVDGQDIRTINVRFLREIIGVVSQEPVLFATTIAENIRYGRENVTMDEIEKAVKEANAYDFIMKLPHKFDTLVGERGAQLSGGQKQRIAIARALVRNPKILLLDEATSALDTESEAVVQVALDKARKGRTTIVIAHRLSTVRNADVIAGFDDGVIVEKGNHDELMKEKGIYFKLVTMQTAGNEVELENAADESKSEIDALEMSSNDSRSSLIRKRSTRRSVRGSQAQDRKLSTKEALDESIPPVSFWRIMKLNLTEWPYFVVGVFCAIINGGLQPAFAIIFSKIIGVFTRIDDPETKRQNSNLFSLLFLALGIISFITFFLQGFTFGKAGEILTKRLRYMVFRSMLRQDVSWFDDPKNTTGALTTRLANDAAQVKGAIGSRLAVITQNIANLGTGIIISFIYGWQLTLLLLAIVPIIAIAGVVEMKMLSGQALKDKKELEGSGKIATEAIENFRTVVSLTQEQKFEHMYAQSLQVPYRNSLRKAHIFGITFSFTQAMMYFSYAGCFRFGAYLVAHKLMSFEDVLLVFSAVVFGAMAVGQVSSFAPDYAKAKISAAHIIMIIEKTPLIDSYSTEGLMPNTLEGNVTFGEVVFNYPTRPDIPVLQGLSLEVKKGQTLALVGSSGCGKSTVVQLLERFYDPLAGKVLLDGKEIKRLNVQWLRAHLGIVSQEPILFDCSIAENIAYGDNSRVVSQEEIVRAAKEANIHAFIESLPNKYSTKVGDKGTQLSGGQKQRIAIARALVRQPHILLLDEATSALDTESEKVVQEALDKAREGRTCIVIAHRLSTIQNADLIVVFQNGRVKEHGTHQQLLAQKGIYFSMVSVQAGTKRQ
Method: 6A. […] 6B. MDCK-MDR1 cells were incubated with 50 nM of either [^14C]-Doxorubicin or [^125I]-Katana peptide-Doxorubicin conjugate (KBB106) for 1 hr at 37° C. in the presence or absence of CsA (10 μM). After the incubation, cells were washed and radioactivity accumulated in cells was quantified. The results were expressed in terms of uptake fmol/mg of protein.
In order to determine whether the anticancer drug-Katana-peptide conjugates could also be P-gp substrates, MDCK-transfected cells with human MDR1 were used (MDCK-MDR1).
Cells were washed three times with PBS and preincubated for 30 min at 37° C. in culture medium without serum with or without the P-gp inhibitor Cyclosporin A (10 μM). Radiolabelled molecules (50 nM) were then added for 60 min. The cells were rapidly washed three times with ice-cold PBS and then lysed in 500 µL of 0.1 M NaOH. The amount of radiolabelled molecules retained in the cells was counted by β-scintillation counting (Packard model 1900 TR). An aliquot of cell lysate was used in parallel to determine cellular protein concentration.

[10] = tested on: ovarian (SKOV3 and ES-2) cancer cells; test: Cell migration assay by xCELLigence biosensor system, ovarian cancer cells; type: cell-based; conditions: 2 hours incubation, 2 μM
Method: 15A. Cells were incubated for 2 hrs with increasing concentration of Doxorubicin or conjugated Doxorubicin (KBB106) and cell migration was performed. 15B. […] 15C. Progranulin (PGR), a sortilin ligand, also reversed the effect of the Doxorubicin conjugate (KBB106) on ovarian cancer cell (ES-2) migration.
This second cellular assay was also used to screen the different Katana-drug conjugates (FIG. 15). […] However, as shown in FIGS. 15B and 15C, when the cancer cells were incubated with conjugated Doxorubicin (KBB106) in the presence of a sortilin ligand (Neurotensin, Katana peptide or progranulin), the migratory effect of the Doxorubicin conjugate was reversed.
Experiments were carried out using the Real-Time Cell Analyser (RTCA) Dual-Plate (DP) Instrument, the xCELLigence system (Roche Diagnostics, QC). This system was used according to the instructions of the supplier. Then, cells (25 000 cells/well) were seeded in serum-free medium onto a CIM-Plates 16 (Roche diagnostics). […] After 30 min of adhesion, cell migration was monitored every 5 min for 8 h. The impedance value was measured by the RTCA DP Instrument and was expressed as an arbitrary unit called the Cell Index which reflecting the amount of migration-active cells. […]

IC50 ([1]; MDA-MB-231, 72 h): 13.4 µM | IC50 [2]: 14.8 µM | IC50 [3]: 12 µM | IC50 [4]: 51.3 µM | IC50 (A-375 skin cancer cells; A-375, Table 6): 20.9 µM | IC50 ([5]; Table 6): 14.4 µM | IC50 ([6]; SK-MEL-28, Table 6): 12.5 µM
SMILES: COc1cc(/C=C/C(=O)CC(=O)/C=C/c2ccc(O)c(OC)c2)ccc1O [Curcumin, curcumin]
induction of apoptosis (nucleus fragmentation, DAPI) (cancer cells): does not

IC50 ([1]; MDA-MB-231): 0.00068 µM | IC50 (A-375 skin cancer cells; A-375 (Skin), Table 4, 2 or 3 days): 0.00092 µM | IC50 ([5]; Table 4, 2 or 3 days): 0.0013 µM | Area under the curve (AUC1-24) ([9]; Brain): 34 ng·h/mL | Area under the curve (AUC1-24) ([9]; Heart): 656 ng·h/mL | Area under the curve (AUC1-24) ([9]; Kidney): 1072 ng·h/mL | Area under the curve (AUC1-24) ([9]; Liver): 652 ng·h/mL | Area under the curve (AUC1-24) ([9]; Lung): 614 ng·h/mL | Area under the curve (AUC1-24) ([9]; Mammary): 823 ng·h/mL | Area under the curve (AUC1-24) ([9]; Ovary): 1523 ng·h/mL | Area under the curve (AUC1-24) ([9]; Spleen): 457 ng·h/mL | IC50 ([6]; SK-MEL-28 (Skin), Table 4, 2 or 3 days): 0.00069 µM | increase of accumulation in the presence of cyclosporin A (P-gp (MDR1)): 2 fold
SMILES: CC(=O)O[C@@]12CO[C@@H]1C[C@H](O)[C@@]1(C)C(=O)[C@H](O)C3=C(C)[C@@H](OC(=O)[C@H](O)[C@@H](NC(=O)OC(C)(C)C)c4ccccc4)C[C@@](O)([C@@H](OC(=O)c4ccccc4)[C@H]21)C3(C)C [Docetaxel, docetaxel, reference compound]
plasma half-life reported in the literature [7]: 1 h | body weight loss (SKOV3 cancer cells): ~20% | tumor luminescence increase compared to initial tumor luminescence ([8]; D74 post-treatment, Docetaxel 15 mg/kg/week): 100%

SMILES: CCCC[C@H](NC(=O)[C@H](CC(N)=O)NC(=O)[C@H](CCCNC(=N)N)NC(=O)[C@@H](NC(=O)CNC(=O)[C@H](C)NC(=O)[C@H](CCCCNC(=O)CCC(=O)O[C@@H](C(=O)O[C@H]1C[C@@]2(O)[C@@H](OC(=O)c3ccccc3)[C@@H]3[C@]4(OC(C)=O)CO[C@@H]4C[C@H](O)[C@@]3(C)C(=O)[C@H](O)C(=C1C)C2(C)C)[C@@H](NC(=O)OC(C)(C)C)c1ccccc1)NC(=O)[C@H](C)NC(=O)[C@H](CCCNC(=N)N)NC(=O)[C@@H](NC(=O)CNC(C)=O)C(C)C)C(C)C)C(=O)N[C@@H](Cc1ccccc1)C(=O)N[C@@H](CCCCNC(=O)CCC(=O)O[C@@H](C(=O)O[C@H]1C[C@@]2(O)[C@@H](OC(=O)c3ccccc3)[C@@H]3[C@]4(OC(C)=O)CO[C@@H]4C[C@H](O)[C@@]3(C)C(=O)[C@H](O)C(=C1C)C2(C)C)[C@@H](NC(=O)OC(C)(C)C)c1ccccc1)C(=O)N[C@@H](CO)C(=O)N[C@@H](CCC(=O)O)C(=O)N[C@@H](CO)C(=O)N[C@@H](Cc1ccc(O)cc1)C(=O)O [KBA-106, Acetyl-GVRAK(docetaxel)AGVRN(Nle)FK(docetaxel)SESY] (Ac-GVRAK(X1)AGVRN[Nle]FK(X1)SESY-OH; C-terminus assumed)
tumor luminescence decrease compared to initial tumor luminescence ([8]; D74 post-treatment, KBA106 50 mg/kg/week): 100% | residual tumor burden (remaining luminescence) ([8]; Day 74 post-treatment, KBA106 50 mg/kg/week): no luminescence was detectable | effect on cell migration [10]: almost completely abolished the cellular capacity of these cells to migrate
